Assay results reported in patent US20050192279A1, “Pyridazinones as antagonists of alpha4 integrins” (priority 2004, published 2005).
pIC50: −log10 of the molar value.

Legend:
α4β1 = molecular target: T1, α4β1 (Homo sapiens, UniProt P05556+P13612); test: Ramos Cell Adhesion Assay (α4β1 Mediated Adhesion/VCAM-1); format: cell-based; conditions: Ramos cell adhesion to hVCAM-1; read-out: α4β1 IC50
T1 construct: Ramos Cell Adhesion Assay (α4β1 Mediated Adhesion/VCAM-1); endogenous in cells; host or cells: Ramos cells
T1 sequence (P05556 21-798, one chain of several): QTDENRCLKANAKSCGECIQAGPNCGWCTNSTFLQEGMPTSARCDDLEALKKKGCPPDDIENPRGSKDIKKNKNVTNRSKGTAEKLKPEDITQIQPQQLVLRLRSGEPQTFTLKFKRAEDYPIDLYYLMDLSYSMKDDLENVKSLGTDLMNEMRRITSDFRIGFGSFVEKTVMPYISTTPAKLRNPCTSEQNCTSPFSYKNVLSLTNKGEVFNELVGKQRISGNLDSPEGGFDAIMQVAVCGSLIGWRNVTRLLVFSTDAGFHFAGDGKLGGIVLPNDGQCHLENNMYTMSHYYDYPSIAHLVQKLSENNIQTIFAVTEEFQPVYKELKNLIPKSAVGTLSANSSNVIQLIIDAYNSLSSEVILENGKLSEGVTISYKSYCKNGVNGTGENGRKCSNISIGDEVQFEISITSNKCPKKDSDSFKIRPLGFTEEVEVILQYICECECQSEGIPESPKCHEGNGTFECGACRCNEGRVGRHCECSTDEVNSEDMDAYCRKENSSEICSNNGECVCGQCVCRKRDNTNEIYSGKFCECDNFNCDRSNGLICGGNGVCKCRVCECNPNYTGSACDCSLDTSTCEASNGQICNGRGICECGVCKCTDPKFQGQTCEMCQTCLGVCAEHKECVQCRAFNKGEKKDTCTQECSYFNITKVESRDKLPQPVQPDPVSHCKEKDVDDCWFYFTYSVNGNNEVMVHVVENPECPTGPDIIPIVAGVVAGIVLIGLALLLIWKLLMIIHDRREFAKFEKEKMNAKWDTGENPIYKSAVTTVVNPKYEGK
Procedure: Ramos Cell Adhesion Assay (α4β1 Mediated Adhesion/VCAM-1)
Immulon 96 well plates (Dynex) were coated with 100 μL recombinant hVCAM-1 at 4.0 μg/mL in 0.05 M NaCO3 buffer pH 9.0 overnight at 4° C. (R&D Systems). Plates were washed 2 times in PBS with 1% BSA and blocked for 1 h @ room temperature in this buffer. PBS was removed and compounds to be tested (50 μL) were added at 2× concentration. Ramos cells, (50 μL at 2×10^6/mL) labeled with 5 μM Calcein AM (Molecular Probes) for 1 h at 37° C., were added to each well and allowed to adhere for 1 h at room temperature. Plates were washed 4× in PBS+1% BSA and cells were lysed for 15 minutes in 100 μL of 1 M Tris pH 8.0 with 1% SDS.

human α4β7 integrin = molecular target: T2, human α4β7 integrin (Homo sapiens, UniProt P13612+P26010); test: α4β7-K562 Cell Adhesion Assay (α4β7 Mediated Adhesion/MAdCAM-1); format: cell-based; conditions: α4β7-K562 cell adhesion to hMAdCAM-1; read-out: α4β7 IC50
T2 construct: expressed in transfected cells; host or cells: K562 cells, stably transfected
T2 sequence (P13612 34-1032): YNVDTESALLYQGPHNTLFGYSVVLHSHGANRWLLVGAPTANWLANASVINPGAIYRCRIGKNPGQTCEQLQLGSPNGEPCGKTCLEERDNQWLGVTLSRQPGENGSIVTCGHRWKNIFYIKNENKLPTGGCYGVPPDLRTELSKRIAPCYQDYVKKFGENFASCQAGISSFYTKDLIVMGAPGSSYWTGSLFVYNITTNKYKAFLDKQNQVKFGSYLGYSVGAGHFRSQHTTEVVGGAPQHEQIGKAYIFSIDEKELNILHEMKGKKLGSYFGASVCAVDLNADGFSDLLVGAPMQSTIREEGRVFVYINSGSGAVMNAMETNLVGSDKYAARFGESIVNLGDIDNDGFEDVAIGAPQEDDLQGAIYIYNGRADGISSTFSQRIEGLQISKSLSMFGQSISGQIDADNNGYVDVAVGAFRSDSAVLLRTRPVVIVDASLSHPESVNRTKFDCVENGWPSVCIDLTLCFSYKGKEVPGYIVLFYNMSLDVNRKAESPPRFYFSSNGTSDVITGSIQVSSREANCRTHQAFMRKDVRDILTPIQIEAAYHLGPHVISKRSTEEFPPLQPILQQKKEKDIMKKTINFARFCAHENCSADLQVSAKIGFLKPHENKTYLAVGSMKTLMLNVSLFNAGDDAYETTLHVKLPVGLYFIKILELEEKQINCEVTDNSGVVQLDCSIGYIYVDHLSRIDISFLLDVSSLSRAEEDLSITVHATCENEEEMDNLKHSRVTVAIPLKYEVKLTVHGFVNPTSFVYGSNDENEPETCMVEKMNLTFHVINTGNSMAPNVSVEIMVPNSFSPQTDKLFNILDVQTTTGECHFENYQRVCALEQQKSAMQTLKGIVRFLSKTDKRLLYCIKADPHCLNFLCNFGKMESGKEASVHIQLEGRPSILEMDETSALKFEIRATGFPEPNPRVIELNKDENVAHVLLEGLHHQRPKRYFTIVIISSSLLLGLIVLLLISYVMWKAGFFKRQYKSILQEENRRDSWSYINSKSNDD
T2 sequence (P26010 20-798): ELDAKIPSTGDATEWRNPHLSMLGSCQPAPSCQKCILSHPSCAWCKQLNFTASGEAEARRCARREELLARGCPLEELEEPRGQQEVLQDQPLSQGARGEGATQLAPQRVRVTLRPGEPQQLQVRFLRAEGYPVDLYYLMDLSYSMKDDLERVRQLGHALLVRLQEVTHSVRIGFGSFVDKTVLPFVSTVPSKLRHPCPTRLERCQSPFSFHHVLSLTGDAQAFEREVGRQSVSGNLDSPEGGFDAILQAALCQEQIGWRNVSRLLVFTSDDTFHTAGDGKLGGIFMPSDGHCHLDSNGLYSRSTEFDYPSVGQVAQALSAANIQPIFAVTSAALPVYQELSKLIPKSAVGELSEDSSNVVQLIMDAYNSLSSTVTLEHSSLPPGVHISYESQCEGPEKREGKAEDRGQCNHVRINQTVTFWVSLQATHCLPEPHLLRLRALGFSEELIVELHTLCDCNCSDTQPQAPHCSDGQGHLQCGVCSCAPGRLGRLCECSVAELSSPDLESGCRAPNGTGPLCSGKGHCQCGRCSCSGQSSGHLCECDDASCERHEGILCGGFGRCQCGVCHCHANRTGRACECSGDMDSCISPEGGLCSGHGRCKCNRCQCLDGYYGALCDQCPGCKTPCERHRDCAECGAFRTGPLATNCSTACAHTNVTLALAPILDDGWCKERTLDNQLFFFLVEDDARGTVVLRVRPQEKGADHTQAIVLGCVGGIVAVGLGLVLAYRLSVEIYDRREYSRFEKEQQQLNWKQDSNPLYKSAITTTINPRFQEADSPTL
Procedure: α4β7-K562 Cell Adhesion Assay (α4β7 Mediated Adhesion/MAdCAM-1)
M2 anti-FLAG Antibody Coated 96-well plates (Sigma) were coated for 1 hour at 4° C. with 2-8 μl/well recombinant FLAG-hMAdCAM-1 contained in 100 μL of Dulbecco's PBS, pH 7.4, with 1% BSA and 1 mM Mn ^+2 (PBS-BSA-Mn). Plates were washed once with PBS-BSA-Mn. Buffer was removed and compounds to be tested (50 μL) were added at 2× concentration. Stably transfected K562 cells expressing human α4β7 integrin, (50 μL at 2×10^6/mL) that had been labeled with 100 μg/ml carboxymethyl fluorescein diacetate succinimidyl ester (CFDA-SE; Molecular Probes) for 15 min at 37° C. were added to each well and allowed to adhere for 1 h at room temperature. Plates were washed 4× in PBS-BSA-Mn and then cells were lysed for 2 minutes by addtion of 100 μL of PBS without Ca, Mg supplemented with 0.1 M NaOH.

SMILES | pIC50 (α4β1) | pIC50 (human α4β7 integrin)
COc1cnn(C)c(=O)c1-c1ccc(C[C@H](NC(=O)[C@H](O)C(C)C)C(=O)O)cc1 [Cpd 129] | < 6.00 | 6.85
Cn1ncc(O)c(-c2ccc(C[C@H](NC(=O)c3c(Cl)cccc3Cl)C(=O)O)cc2)c1=O [Cpd 95, (S)-2-(2,6-Dichloro-benzoylamino)-3-[4-(5-hydroxy-2-methyl-3-oxo-2,3-dihydro-pyridazin-4-yl)-phenyl]-propionic acid] | 6.32 | 7.27
COc1cnn(C)c(=O)c1-c1ccc(C[C@H](NC(=O)c2c(Cl)cccc2Cl)C(=O)NCCO)cc1 [Cpd 119] | 5.42 | 6.98
COc1cnn(C)c(=O)c1-c1ccc(C[C@H](NC(=O)c2ccc(C(=O)O)cc2)C(=O)O)cc1 [Cpd 137] | 6.02 | 6.70
Cn1ncc(N2CCCC2)c(-c2ccc(C[C@H](NC(=O)c3c(Cl)cccc3Cl)C(=O)O)cc2)c1=O [Cpd 51] | 6.95 | 7.80
COc1cnn(Cc2ccccc2)c(=O)c1-c1ccc(C[C@H](NC(=O)c2c(Cl)cccc2Cl)C(=O)O)cc1 [Cpd 117] | 6.29 | 6.99
Cn1ncc(O)c(-c2ccc(C[C@H](NC(=O)c3c(Cl)cncc3Cl)C(=O)O)cc2)c1=O [Cpd 62] | 7.40 | 7.68
COc1cnn(C)c(=O)c1-c1ccc(C[C@H](NC(=O)CN(C)C(=O)OC(C)(C)C)C(=O)O)cc1 [Cpd 157] | < 5.30 | 6.45
COc1cnn(C)c(=O)c1-c1ccc(C[C@H](NC(=O)c2cnoc2C)C(=O)O)cc1 [Cpd 147] | < 5.30 | 6.60
COc1cnn(CCN2CCOCC2)c(=O)c1-c1ccc(C[C@H](NC(=O)[C@H](NC(C)C)C(C)C)C(=O)O)cc1 [Cpd 179] | < 5.30 | 6.14
COc1cnn(C)c(=O)c1-c1ccc(C[C@H](NC(=O)OCc2c(Cl)cccc2Cl)C(=O)O)cc1 [Cpd 204] | < 5.30 | 5.73
Cn1ncc(Cl)c(-c2ccc(C[C@H](NC(=O)c3c(Cl)cccc3Cl)C(=O)O)cc2)c1=O [Cpd 49] | 6.31 | 7.85
COc1cnn(C)c(=O)c1-c1ccc(C[C@H](NC(=O)C2(O)CC2)C(=O)O)cc1 [Cpd 217] | < 5.30 | 6.19
COc1cn[nH]c(=O)c1-c1ccc(C[C@H](NC(=O)c2c(Cl)cccc2Cl)C(=O)O)cc1 [Cpd 83] | 5.99 | 7.39
Cn1ncc(OCc2cccnc2)c(-c2ccc(C[C@H](NC(=O)c3c(Cl)cccc3Cl)C(=O)O)cc2)c1=O [Cpd 25] | 6.88 | 8.30
COc1cnn(C)c(=O)c1-c1ccc(C[C@H](NC(=O)NC2CCCCC2)C(=O)O)cc1 [Cpd 219] | < 5.30 | 6.07
COc1cnn(C)c(=O)c1-c1ccc(C[C@H](NC(=O)C2(NC(C)C)CCOCC2)C(=O)O)cc1 [Cpd 42] | 6.03 | 7.23

SMILES | pIC50 (α4β1) | pIC50 (human α4β7 integrin)
COCCC(=O)N1C2CCC(CC2)[C@H]1C(=O)N[C@@H](Cc1ccc(-c2c(OC)cnn(C)c2=O)cc1)C(=O)O [Cpd 125] | 6.95 | 6.91
Nc1cnn(-c2ccccc2)c(=O)c1-c1ccc(C[C@H](NC(=O)c2c(Cl)cccc2Cl)C(=O)O)cc1 [Cpd 197] | < 6.00 | 5.88
O=C(N[C@@H](Cc1ccc(-c2c(O)cn[nH]c2=O)cc1)C(=O)O)c1c(Cl)cccc1Cl [Cpd 168] | < 6.00 | 6.31
O=C(N[C@@H](Cc1ccc(-c2c(Cl)cnn(CC3CC3)c2=O)cc1)C(=O)O)c1c(Cl)cccc1Cl [Cpd 93, (S)-3-[4-(5-Chloro-2-cyclopropylmethyl-3-oxo-2,3-dihydro-pyridazin-4-yl)-phenyl]-2-(2,6-dichloro-benzoylamino)-propionic acid] | < 5.30 | 7.28
Cn1ncc(OCc2ccccc2)c(-c2ccc(C[C@H](NC(=O)c3c(Cl)cccc3Cl)C(=O)O)cc2)c1=O [Cpd 52] | 6.18 | 7.77
COc1cnn(C)c(=O)c1-c1ccc(C[C@H](NC(=O)C2(NC3CCCCC3)CCOCC2)C(=O)O)cc1 [Cpd 98] | 5.42 | 6.61
COc1cnn(CCN2CCOCC2)c(=O)c1-c1ccc(C[C@H](NC(=O)[C@@H](NC(=O)OC(C)(C)C)[C@@H](C)O)C(=O)O)cc1 [Cpd 154] | < 5.30 | 6.48
COc1cnn(C)c(=O)c1-c1ccc(C[C@H](NC(=O)C2(NC(C)=O)CC2)C(=O)O)cc1 [Cpd 227] | < 5.30 | 6.66
COc1cnn(C)c(=O)c1-c1ccc(C[C@H](NC(=O)OC2CCCCC2)C(=O)O)cc1 [Cpd 208] | < 5.30 | 5.56
CNc1cnn(C)c(=O)c1-c1ccc(C[C@H](NC(=O)c2c(Cl)cccc2Cl)C(=O)O)cc1 [Cpd 156] | < 5.30 | 6.47
COc1cnn(C)c(=O)c1-c1ccc(CC(NC(=O)C(C(C)C)n2cccc2)C(=O)O)cc1 (stereo not drawn) [Cpd 87, 3-[4-(5-Methoxy-2-methyl-3-oxo-2,3-dihydro-pyridazin-4-yl)-phenyl]-2-(3-methyl-2-pyrrol-1-yl-butyrylamino)-propionic acid] | 6.56 | 7.36
O=C(N[C@@H](Cc1ccc(-c2c(-n3cc(Br)cn3)cnn(CCO)c2=O)cc1)C(=O)O)c1c(Cl)cccc1Cl [Cpd 94] | 5.88 | 7.28
CC(C)(C)n1ncc(-n2cncn2)c(-c2ccc(C[C@H](NC(=O)c3c(Cl)cccc3Cl)C(=O)O)cc2)c1=O [Cpd 160] | 6.21 | 6.44
COc1cnn(C)c(=O)c1-c1ccc(C[C@H](NC(=O)C23CCC(CC2)CN3C(=O)CCc2ccco2)C(=O)O)cc1 [Cpd 115] | 7.20 | 7.03
COc1cnn(C)c(=O)c1-c1ccc(C[C@H](NC(=O)[C@@H](C(C)C)N(C)C(=O)Cc2ccsc2)C(=O)O)cc1 [Cpd 19] | 7.36 | 8.52
COc1cnn(C)c(=O)c1-c1ccc(C[C@H](NC(=O)CN(C)C(=O)OCc2ccccc2)C(=O)O)cc1 [Cpd 96] | 5.75 | 7.25
